Experimental data as given in US12677832B2, “Oxadiazole compounds for controlling or preventing phytopathogenic fungi” (PI INDUSTRIES LTD., priority 2019, dated 2026).

What was measured:
Assay type in all cases: cell-based
Alternaria solani = Alternaria solani (Early Blight of Tomato/Potato) radial growth on potato dextrose agar; settings: 168 h, radial growth after seven days compared to untreated control
Fusarium culmorum = Fusarium culmorum (Foot Rot of Cereals) radial growth on potato dextrose agar; settings: 300 ppm; radial growth after seven days compared to untreated control
Method: Example 6: Fusarium culmorum (Foot Rot of Cereals)
Compounds were dissolved in 0.3% dimethyl sulfoxide and then added to potato dextrose agar medium just prior to dispensing it into petri dishes. 5 mL medium with the compound in the desired concentration was dispensed into 60 mm sterile petri-plates. After solidification each plate was seeded with a 5 mm size mycelial disc taken from the periphery of an actively growing virulent culture plate. Plates were incubated in growth chambers at 25° C. temperature and 60% relative humidity for seven days and then the radial growth was measured and compared to that of the untreated control.

Botrytis cinerea = Botrytis cinerea (Gray Mold) radial growth on potato dextrose agar; settings: 300 ppm; radial growth after seven days compared to untreated control
Pyricularia oryzae = experiment: microbe, parasite or virus in culture; settings: 168 h, read-out: control

SMILES	inhibition of growth at 300 ppm (Alternaria solani)	control (Fusarium culmorum)	control (Botrytis cinerea)	inhibition of growth at 300 ppm (Pyricularia oryzae)
O=C(CNc1ccc(Cl)c(C(F)(F)F)c1)c1ccc(-c2noc(C(F)(F)F)n2)cc1 [Compound 140, 2-((4-chloro-3-(trifluoromethyl)phenyl)amino)-1-(4-(5-(trifluoromethyl)-1,2,4-oxadiazol-3-yl)phenyl)ethan-1-one]	≥ 70%	≥ 70%		
O=C(COc1ccccc1F)c1ccc(-c2noc(C(F)(F)F)n2)cn1 [Compound 114, 2-(2-fluorophenoxy)-1-(5-(5-(trifluoromethyl)-1,2,4-oxadiazol-3-yl)pyridin-2-yl)ethan-1-one]			≥ 70%	≥ 70%
